Key:
USP30^ch1 = USP30^ch1 (Homo sapiens, UniProt Q70CQ3); experiment: Ub–RhoG cleavage enzyme inhibition assay, chimera 1; format: biochemical; set-up: scale not given here; conditions: mean n=3
Protocol: Enzyme kinetics were performed in black, low-volume, non-binding-surface 384-well plates. […] Next, 10 µl of 2× enzyme solution was added in triplicate to the plate. The reaction was started by adding 10 µl of 2× substrate solution. […] Inhibitor solution (4×) was added to 4× enzyme solution to create a 2× enzyme–inhibitor mixture. Next, 10 µl of this 2× enzyme–inhibitor mixture was then added to the plate in triplicate, and the plate was incubated at room temperature for 90 min. The reaction was started by adding 10 µl of 2× Ub–RhoG substrate. […] Data were analyzed with GraphPad Prism.

other DUBs = conditions: at 100 µM; cited from earlier work

USP30^ch1, sequence (Q70CQ3 64-502): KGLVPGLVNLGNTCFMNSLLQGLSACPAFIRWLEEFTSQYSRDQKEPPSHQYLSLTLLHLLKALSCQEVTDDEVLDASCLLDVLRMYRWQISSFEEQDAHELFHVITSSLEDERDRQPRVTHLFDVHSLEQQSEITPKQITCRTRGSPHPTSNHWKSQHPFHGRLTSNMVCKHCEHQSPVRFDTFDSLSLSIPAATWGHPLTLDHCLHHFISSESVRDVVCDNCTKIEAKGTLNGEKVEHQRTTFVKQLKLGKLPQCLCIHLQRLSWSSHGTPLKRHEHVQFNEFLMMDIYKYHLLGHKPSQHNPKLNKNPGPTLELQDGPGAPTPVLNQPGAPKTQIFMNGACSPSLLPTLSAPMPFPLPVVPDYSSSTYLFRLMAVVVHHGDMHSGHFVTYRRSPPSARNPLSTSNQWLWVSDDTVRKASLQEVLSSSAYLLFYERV
USP30^ch1, sequence (Q93009 325-395 partner): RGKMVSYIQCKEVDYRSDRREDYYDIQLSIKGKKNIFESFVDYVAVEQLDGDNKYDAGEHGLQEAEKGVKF

CC(C)(C)NS(=O)(=O)c1ccc(NC(=O)[C@H](Cc2ccccc2)NC(=O)c2ccc(F)cc2)cc1 [compound 39]
USP30ch1 activity (USP30^ch1; inhibitor 0.0015625 nM): 0.9737
USP30ch1 activity (USP30^ch1; inhibitor 0.00625 nM): 0.9837
USP30ch1 activity (USP30^ch1; inhibitor 0.025 nM): 0.8913
USP30ch1 activity (USP30^ch1; inhibitor 0.1 nM): 0.7529
USP30ch1 activity (USP30^ch1; inhibitor 0.39 nM): 0.5726
USP30ch1 activity (USP30^ch1; inhibitor 1.56 nM): 0.3796
USP30ch1 activity (USP30^ch1; inhibitor 6.25 nM): 0.2212
USP30ch1 activity (USP30^ch1; inhibitor 25 nM): 0.1115
USP30ch1 activity (USP30^ch1; inhibitor 100 nM): 0.04824
USP30ch1 activity (USP30^ch1; inhibitor 400 nM): 0.02114
USP30ch1 activity (USP30^ch1; inhibitor 1600 nM): 0.0058
inhibition of other DUBs in a panel of recombinant enzymes (other DUBs): no other DUB being inhibited

— paper PMC12440824, “Chimeric deubiquitinase engineering reveals structural basis for specific inhibition of the mitophagy regulator USP30” (Nature Structural & Molecular Biology, 2025)
